ChEMBL document CHEMBL3885881, “DrugMatrix”

Organism: Rattus norvegicus
Test: DrugMatrix - Regimen: Daily Repeat
Format: toxicity, organism-based, Sprague-Dawley
Design: regimen Daily Repeat, gender Male, age 6-8 weeks
Details: in vivo, po, route oral GAVAGE, vehicle .5 % CMC; for BASOPHIL / EOSINOPHIL / ERYTHROCYTE COUNT / HEMATOCRIT / HEMOGLOBIN / LEUKOCYTE COUNT / LYMPHOCYTE / MEAN CORPUSCULAR HEMOGLOBIN / MEAN CORPUSCULAR HEMOGLOBIN CONCENTRATION / MEAN CORPUSCULAR VOLUME / MONOCYTE / NEUTROPHIL / PLATELET COUNT: tissue Blood; for ALANINE AMINOTRANSFERASE / ALBUMIN / ALKALINE PHOSPHATASE / ASPARTATE AMINOTRANSFERASE / BLOOD UREA NITROGEN / CHLORIDE / CHOLESTEROL / CREATINE PHOSPHOKINASE / CREATININE / GLUCOSE / PHOSPHORUS / POTASSIUM / SODIUM / TOTAL BILIRUBIN / TOTAL PROTEIN: tissue Plasma
[1] = 0 mg/kg, 72 h, dose level Control, time 3 day
[2] = 0 mg/kg, 120 h, dose level Control, time 5 day
[3] = 75 mg/kg, 72 h, dose level High, time 3 day
[4] = 75 mg/kg, 120 h, dose level High, time 5 day
[5] = […], 72 h, dose 7.5 mg/Kg, dose level Low, time 3 day
[6] = […], 120 h, dose 7.5 mg/Kg, dose level Low, time 5 day

Structure (SMILES): COc1ccc(C2C(=O)c3ccccc3C2=O)cc1 [ANISINDIONE]
- BASOPHIL [1]: 0%
- EOSINOPHIL [1]: 0%
- ERYTHROCYTE COUNT [1]: 6.19 x10E6/uL
- HEMATOCRIT [1]: 36.94%
- HEMOGLOBIN [1]: 14.58 G/DL
- LEUKOCYTE COUNT [1]: 11.54 x10E3/uL
- LYMPHOCYTE [1]: 84.8%
- MEAN CORPUSCULAR HEMOGLOBIN [1]: 23.58 pg
- MEAN CORPUSCULAR HEMOGLOBIN CONCENTRATION [1]: 39.44 G/DL
- MEAN CORPUSCULAR VOLUME [1]: 59.76 fL
- MONOCYTE [1]: 1.4%
- NEUTROPHIL [1]: 13.8%
- PLATELET COUNT [1]: 1068.8 x10E3/uL
- ALANINE AMINOTRANSFERASE [1]: 38.17 u/L
- ALBUMIN [1]: 3.88 G/DL
- ALKALINE PHOSPHATASE [1]: 391.33 u/L
- ASPARTATE AMINOTRANSFERASE [1]: 69.83 u/L
- BLOOD UREA NITROGEN [1]: 15 mg/dL
- CHLORIDE [1]: 104.17 MEQ/L
- CHOLESTEROL [1]: 72.17 mg/dL
- CREATINE PHOSPHOKINASE [1]: 174.33 u/L
- CREATININE [1]: 0.58 mg/dL
- GLUCOSE [1]: 192.67 mg/dL
- PHOSPHORUS [1]: 10.52 mg/dL
- POTASSIUM [1]: 6.8 MEQ/L
- SODIUM [1]: 149.67 MEQ/L
- TOTAL BILIRUBIN [1]: 0.78 mg/dL
- TOTAL PROTEIN [1]: 6.28 G/DL
- BASOPHIL [2]: 0%
- EOSINOPHIL [2]: 0.17%
- ERYTHROCYTE COUNT [2]: 6.72 x10E6/uL
- HEMATOCRIT [2]: 40.02%
- HEMOGLOBIN [2]: 15.83 G/DL
- LEUKOCYTE COUNT [2]: 9.5 x10E3/uL
- LYMPHOCYTE [2]: 87.17%
- MEAN CORPUSCULAR HEMOGLOBIN [2]: 23.57 pg
- MEAN CORPUSCULAR HEMOGLOBIN CONCENTRATION [2]: 39.62 G/DL
- MEAN CORPUSCULAR VOLUME [2]: 59.55 fL
- MONOCYTE [2]: 1.67%
- NEUTROPHIL [2]: 11%
- PLATELET COUNT [2]: 1053.67 x10E3/uL
- ALANINE AMINOTRANSFERASE [2]: 26.33 u/L
- ALBUMIN [2]: 4.02 G/DL
- ALKALINE PHOSPHATASE [2]: 316.67 u/L
- ASPARTATE AMINOTRANSFERASE [2]: 61.33 u/L
- BLOOD UREA NITROGEN [2]: 18.67 mg/dL
- CHLORIDE [2]: 108 MEQ/L
- CHOLESTEROL [2]: 65.17 mg/dL
- CREATINE PHOSPHOKINASE [2]: 161.17 u/L
- CREATININE [2]: 0.75 mg/dL
- GLUCOSE [2]: 177.33 mg/dL
- PHOSPHORUS [2]: 9.72 mg/dL
- POTASSIUM [2]: 6.18 MEQ/L
- SODIUM [2]: 150.5 MEQ/L
- TOTAL BILIRUBIN [2]: 0.68 mg/dL
- TOTAL PROTEIN [2]: 6.55 G/DL
- BASOPHIL [3]: 0%
- EOSINOPHIL [3]: 0.33%
- ERYTHROCYTE COUNT [3]: 6.08 x10E6/uL
- HEMATOCRIT [3]: 36.9%
- HEMOGLOBIN [3]: 14.87 G/DL
- LEUKOCYTE COUNT [3]: 12.97 x10E3/uL
- LYMPHOCYTE [3]: 73.67%
- MEAN CORPUSCULAR HEMOGLOBIN [3]: 24.43 pg
- MEAN CORPUSCULAR HEMOGLOBIN CONCENTRATION [3]: 40.3 G/DL
- MEAN CORPUSCULAR VOLUME [3]: 60.63 fL
- MONOCYTE [3]: 4.67%
- NEUTROPHIL [3]: 21.33%
- PLATELET COUNT [3]: 1074.33 x10E3/uL
- ALANINE AMINOTRANSFERASE [3]: 32.33 u/L
- ALBUMIN [3]: 3.7 G/DL
- ALKALINE PHOSPHATASE [3]: 312.67 u/L
- ASPARTATE AMINOTRANSFERASE [3]: 70.67 u/L
- BLOOD UREA NITROGEN [3]: 16.67 mg/dL
- CHLORIDE [3]: 102.67 MEQ/L
- CHOLESTEROL [3]: 62.67 mg/dL
- CREATINE PHOSPHOKINASE [3]: 163 u/L
- CREATININE [3]: 0.7 mg/dL
- GLUCOSE [3]: 161.33 mg/dL
- PHOSPHORUS [3]: 10.17 mg/dL
- POTASSIUM [3]: 6.4 MEQ/L
- SODIUM [3]: 147 MEQ/L
- TOTAL BILIRUBIN [3]: 0.57 mg/dL
- TOTAL PROTEIN [3]: 5.87 G/DL
- BASOPHIL [4]: 0%
- EOSINOPHIL [4]: 0.5%
- ERYTHROCYTE COUNT [4]: 6.19 x10E6/uL
- HEMATOCRIT [4]: 36.1%
- HEMOGLOBIN [4]: 14.4 G/DL
- LEUKOCYTE COUNT [4]: 13.5 x10E3/uL
- LYMPHOCYTE [4]: 85.5%
- MEAN CORPUSCULAR HEMOGLOBIN [4]: 23.25 pg
- MEAN CORPUSCULAR HEMOGLOBIN CONCENTRATION [4]: 39.9 G/DL
- MEAN CORPUSCULAR VOLUME [4]: 58.3 fL
- MONOCYTE [4]: 1.5%
- NEUTROPHIL [4]: 12.5%
- PLATELET COUNT [4]: 1096 x10E3/uL
- ALANINE AMINOTRANSFERASE [4]: 36.5 u/L
- ALBUMIN [4]: 3.75 G/DL
- ALKALINE PHOSPHATASE [4]: 318 u/L
- ASPARTATE AMINOTRANSFERASE [4]: 61.5 u/L
- BLOOD UREA NITROGEN [4]: 14 mg/dL
- CHLORIDE [4]: 104 MEQ/L
- CHOLESTEROL [4]: 40.5 mg/dL
- CREATINE PHOSPHOKINASE [4]: 138.5 u/L
- CREATININE [4]: 0.55 mg/dL
- GLUCOSE [4]: 161 mg/dL
- PHOSPHORUS [4]: 10.3 mg/dL
- POTASSIUM [4]: 6.15 MEQ/L
- SODIUM [4]: 150 MEQ/L
- TOTAL BILIRUBIN [4]: 0.55 mg/dL
- TOTAL PROTEIN [4]: 6.2 G/DL
- BASOPHIL [5]: 0%
- EOSINOPHIL [5]: 1%
- ERYTHROCYTE COUNT [5]: 6.37 x10E6/uL
- HEMATOCRIT [5]: 38.8%
- HEMOGLOBIN [5]: 15.33 G/DL
- LEUKOCYTE COUNT [5]: 10.33 x10E3/uL
- LYMPHOCYTE [5]: 83.67%
- MEAN CORPUSCULAR HEMOGLOBIN [5]: 24.07 pg
- MEAN CORPUSCULAR HEMOGLOBIN CONCENTRATION [5]: 39.53 G/DL
- MEAN CORPUSCULAR VOLUME [5]: 60.9 fL
- MONOCYTE [5]: 3.33%
- NEUTROPHIL [5]: 12%
- PLATELET COUNT [5]: 1127.67 x10E3/uL
- ALANINE AMINOTRANSFERASE [5]: 31.33 u/L
- ALBUMIN [5]: 3.87 G/DL
- ALKALINE PHOSPHATASE [5]: 294.67 u/L
- ASPARTATE AMINOTRANSFERASE [5]: 62.33 u/L
- BLOOD UREA NITROGEN [5]: 14.33 mg/dL
- CHLORIDE [5]: 103.67 MEQ/L
- CHOLESTEROL [5]: 76 mg/dL
- CREATINE PHOSPHOKINASE [5]: 156 u/L
- CREATININE [5]: 0.7 mg/dL
- GLUCOSE [5]: 185.67 mg/dL
- PHOSPHORUS [5]: 12.2 mg/dL
- POTASSIUM [5]: 7.33 MEQ/L
- SODIUM [5]: 149.67 MEQ/L
- TOTAL BILIRUBIN [5]: 0.53 mg/dL
- TOTAL PROTEIN [5]: 6.23 G/DL
- BASOPHIL [6]: 0%
- EOSINOPHIL [6]: 0%
- ERYTHROCYTE COUNT [6]: 6.33 x10E6/uL
- HEMATOCRIT [6]: 38.27%
- HEMOGLOBIN [6]: 15.1 G/DL
- LEUKOCYTE COUNT [6]: 12.9 x10E3/uL
- LYMPHOCYTE [6]: 81.33%
- MEAN CORPUSCULAR HEMOGLOBIN [6]: 23.87 pg
- MEAN CORPUSCULAR HEMOGLOBIN CONCENTRATION [6]: 39.47 G/DL
- MEAN CORPUSCULAR VOLUME [6]: 60.5 fL
- MONOCYTE [6]: 2.33%
- NEUTROPHIL [6]: 16.33%
- PLATELET COUNT [6]: 999.67 x10E3/uL
- ALANINE AMINOTRANSFERASE [6]: 37 u/L
- ALBUMIN [6]: 3.87 G/DL
- ALKALINE PHOSPHATASE [6]: 349.67 u/L
- ASPARTATE AMINOTRANSFERASE [6]: 67.67 u/L
- BLOOD UREA NITROGEN [6]: 14 mg/dL
- CHLORIDE [6]: 104 MEQ/L
- CHOLESTEROL [6]: 70.33 mg/dL
- CREATINE PHOSPHOKINASE [6]: 150.33 u/L
- CREATININE [6]: 0.7 mg/dL
- GLUCOSE [6]: 172 mg/dL
- PHOSPHORUS [6]: 10.37 mg/dL
- POTASSIUM [6]: 6.23 MEQ/L
- SODIUM [6]: 149.67 MEQ/L
- TOTAL BILIRUBIN [6]: 0.57 mg/dL
- TOTAL PROTEIN [6]: 6.2 G/DL
